# Data taken from ChEMBL document CHEMBL4004803, “Syntheses and antibacterial activity of soluble 9-bromo substituted indolizinoquinoline-5,12-dione derivatives” (Eur J Med Chem, 2017).
# Assays:
# Staphylococcus aureus [1] = test: Antibacterial activity against methicillin-resistant Staphylococcus aureus 214026 clinical isolate after 20 to 24 hrs by two-fold microdilution method; assay type: functional
# Staphylococcus aureus [2] = test: Antibacterial activity against methicillin-resistant Staphylococcus aureus 112106 clinical isolate after 20 to 24 hrs by two-fold microdilution method; assay type: functional
# Staphylococcus aureus [3] = test: Antibacterial activity against methicillin-resistant Staphylococcus aureus 1012029 clinical isolate after 20 to 24 hrs by two-fold microdilution method; assay type: functional
# Staphylococcus aureus [4] = test: Antibacterial activity against methicillin-resistant Staphylococcus aureus 221022 clinical isolate after 20 to 24 hrs by two-fold microdilution method; assay type: functional
# Staphylococcus aureus [5] = test: Antibacterial activity against methicillin-resistant Staphylococcus aureus 110325 clinical isolate after 20 to 24 hrs by two-fold microdilution method; assay type: functional
# Staphylococcus aureus [6] = test: Antibacterial activity against methicillin-resistant Staphylococcus aureus 831024 clinical isolate after 20 to 24 hrs by two-fold microdilution method; assay type: functional
# Staphylococcus aureus [7] = test: Antibacterial activity against methicillin-resistant Staphylococcus aureus 1215028 clinical isolate after 20 to 24 hrs by two-fold microdilution method; assay type: functional
# Streptococcus pneumoniae = test: Antibacterial activity against Streptococcus pneumoniae ATCC 6305 after 20 to 24 hrs by two-fold microdilution method; assay type: functional
# Staphylococcus aureus [8] = test: Antibacterial activity against methicillin-resistant Staphylococcus aureus 519238 clinical isolate after 20 to 24 hrs by two-fold microdilution method; assay type: functional
# [9] = Solubility of the compound in water at 25 degC measured after shaking for 4 hrs by UV method; assay type: physicochemical
# Staphylococcus aureus [10] = test: Antibacterial activity against methicillin-resistant Staphylococcus aureus 10281-2 clinical isolate after 20 to 24 hrs by two-fold microdilution method; assay type: functional
# Staphylococcus aureus [11] = test: Antibacterial activity against methicillin-resistant Staphylococcus aureus clinical isolate after 20 to 24 hrs by two-fold microdilution method; assay type: functional
# Staphylococcus aureus [12] = test: Antibacterial activity against methicillin-resistant Staphylococcus aureus 109016 clinical isolate after 20 to 24 hrs by two-fold microdilution method; assay type: functional
# Staphylococcus aureus [13] = test: Antibacterial activity against methicillin-resistant Staphylococcus aureus 215073 clinical isolate after 20 to 24 hrs by two-fold microdilution method; assay type: functional
# Staphylococcus aureus [14] = test: Antibacterial activity against methicillin-resistant Staphylococcus aureus 110432 clinical isolate after 20 to 24 hrs by two-fold microdilution method; assay type: functional
# Staphylococcus aureus [15] = test: Antibacterial activity against methicillin-resistant Staphylococcus aureus 110328-1 clinical isolate after 20 to 24 hrs by two-fold microdilution method; assay type: functional
# Staphylococcus aureus [16] = test: Antibacterial activity against methicillin-resistant Staphylococcus aureus 110414 clinical isolate after 20 to 24 hrs by two-fold microdilution method; assay type: functional
# Staphylococcus aureus [17] = test: Antibacterial activity against methicillin-resistant Staphylococcus aureus 3250299 clinical isolate after 20 to 24 hrs by two-fold microdilution method; assay type: functional
# Staphylococcus aureus [18] = test: Antibacterial activity against methicillin-resistant Staphylococcus aureus 112430 clinical isolate after 20 to 24 hrs by two-fold microdilution method; assay type: functional
# Streptococcus pyogenes = test: Antibacterial activity against Streptococcus pyogenes ATCC 19615 after 20 to 24 hrs by two-fold microdilution method; assay type: functional
# Staphylococcus aureus [19] = test: Antibacterial activity against methicillin-resistant Staphylococcus aureus 504008 clinical isolate after 20 to 24 hrs by two-fold microdilution method; assay type: functional
# Staphylococcus aureus [20] = test: Antibacterial activity against methicillin-resistant Staphylococcus aureus 20339 clinical isolate after 20 to 24 hrs by two-fold microdilution method; assay type: functional
# Staphylococcus aureus [21] = test: Antibacterial activity against methicillin-resistant Staphylococcus aureus 11703 clinical isolate after 20 to 24 hrs by two-fold microdilution method; assay type: functional
# Staphylococcus aureus [22] = test: Antibacterial activity against methicillin-resistant Staphylococcus aureus 19950 clinical isolate after 20 to 24 hrs by two-fold microdilution method; assay type: functional
# Staphylococcus aureus [23] = test: Antibacterial activity against methicillin-resistant Staphylococcus aureus 1024010 clinical isolate after 20 to 24 hrs by two-fold microdilution method; assay type: functional
# Staphylococcus aureus [24] = test: Antibacterial activity against methicillin-resistant Staphylococcus aureus 502025 clinical isolate after 20 to 24 hrs by two-fold microdilution method; assay type: functional
# Staphylococcus aureus [25] = test: Antibacterial activity against methicillin-resistant Staphylococcus aureus 531220 clinical isolate after 20 to 24 hrs by two-fold microdilution method; assay type: functional
# Staphylococcus aureus [26] = test: Antibacterial activity against methicillin-resistant Staphylococcus aureus 121969 clinical isolate after 20 to 24 hrs by two-fold microdilution method; assay type: functional
# Staphylococcus aureus [27] = test: Antibacterial activity against methicillin-resistant Staphylococcus aureus 523005 clinical isolate after 20 to 24 hrs by two-fold microdilution method; assay type: functional
# Staphylococcus aureus [28] = test: Antibacterial activity against methicillin-resistant Staphylococcus aureus 216054 clinical isolate after 20 to 24 hrs by two-fold microdilution method; assay type: functional
# Staphylococcus aureus [29] = test: Antibacterial activity against methicillin-resistant Staphylococcus aureus 822030 clinical isolate after 20 to 24 hrs by two-fold microdilution method; assay type: functional
# Staphylococcus aureus [30] = test: Antibacterial activity against methicillin-resistant Staphylococcus aureus 111625 clinical isolate after 20 to 24 hrs by two-fold microdilution method; assay type: functional
# Staphylococcus aureus [31] = test: Antibacterial activity against methicillin-resistant Staphylococcus aureus 530231 clinical isolate after 20 to 24 hrs by two-fold microdilution method; assay type: functional
# Staphylococcus aureus [32] = test: Antibacterial activity against methicillin-resistant Staphylococcus aureus 102849 clinical isolate after 20 to 24 hrs by two-fold microdilution method; assay type: functional
# Staphylococcus aureus [33] = test: Antibacterial activity against methicillin-resistant Staphylococcus aureus 919205 clinical isolate after 20 to 24 hrs by two-fold microdilution method; assay type: functional
# Staphylococcus aureus [34] = test: Antibacterial activity against methicillin-resistant Staphylococcus aureus 1113041 clinical isolate after 20 to 24 hrs by two-fold microdilution method; assay type: functional
# Staphylococcus aureus [35] = test: Antibacterial activity against methicillin-resistant Staphylococcus aureus 1101016 clinical isolate after 20 to 24 hrs by two-fold microdilution method; assay type: functional
# Staphylococcus aureus [36] = test: Antibacterial activity against methicillin-resistant Staphylococcus aureus 414244 clinical isolate after 20 to 24 hrs by two-fold microdilution method; assay type: functional
# Enterococcus faecalis = test: Antibacterial activity against Enterococcus faecalis ATCC 29212 after 20 to 24 hrs by two-fold microdilution method; assay type: functional
# Staphylococcus aureus [37] = test: Antibacterial activity against methicillin-resistant Staphylococcus aureus 109244 clinical isolate after 20 to 24 hrs by two-fold microdilution method; assay type: functional
# Staphylococcus aureus [38] = test: Antibacterial activity against methicillin-resistant Staphylococcus aureus 30116-1 clinical isolate after 20 to 24 hrs by two-fold microdilution method; assay type: functional
# Staphylococcus aureus [39] = test: Antibacterial activity against methicillin-resistant Staphylococcus aureus 110910-2 clinical isolate after 20 to 24 hrs by two-fold microdilution method; assay type: functional
# Staphylococcus aureus [40] = test: Antibacterial activity against methicillin-resistant Staphylococcus aureus 1106003 clinical isolate after 20 to 24 hrs by two-fold microdilution method; assay type: functional
# Staphylococcus aureus [41] = test: Antibacterial activity against methicillin-resistant Staphylococcus aureus 921026 clinical isolate after 20 to 24 hrs by two-fold microdilution method; assay type: functional
# Staphylococcus aureus [42] = test: Antibacterial activity against methicillin-resistant Staphylococcus aureus 20106-2 clinical isolate after 20 to 24 hrs by two-fold microdilution method; assay type: functional
# Staphylococcus aureus [43] = test: Antibacterial activity against methicillin-resistant Staphylococcus aureus 131215 clinical isolate after 20 to 24 hrs by two-fold microdilution method; assay type: functional
# Staphylococcus aureus [44] = test: Antibacterial activity against methicillin-resistant Staphylococcus aureus 121026 clinical isolate after 20 to 24 hrs by two-fold microdilution method; assay type: functional
smiles,measurement,setting,value
O=C1c2cccnc2C(=O)c2c1c(C(=O)OCCCCCCN1CCCCC1)c1ccc(Br)cn21,MIC,Staphylococcus aureus [1],≤ 0.0078 µg/mL
same,MIC,Staphylococcus aureus [2],0.063 µg/mL
same,MIC,Staphylococcus aureus [3],0.063 µg/mL
same,MIC,Staphylococcus aureus [4],0.125 µg/mL
same,MIC,Staphylococcus aureus [5],0.031 µg/mL
same,MIC,Staphylococcus aureus [6],0.063 µg/mL
same,MIC,Staphylococcus aureus [7],0.063 µg/mL
same,MIC,Streptococcus pneumoniae,0.5 µg/mL
same,MIC,Staphylococcus aureus [8],0.125 µg/mL
same,solubility thermodynamic at 4 h,[9]; water,1980 µg/mL
same,MIC,Staphylococcus aureus [10],0.063 µg/mL
same,MIC50,Staphylococcus aureus [11],0.063 µg/mL
same,MIC90,Staphylococcus aureus [11],0.125 µg/mL
same,MIC,Staphylococcus aureus [12],0.031 µg/mL
same,MIC,Staphylococcus aureus [13],0.016 µg/mL
same,MIC,Staphylococcus aureus [14],0.063 µg/mL
same,MIC,Staphylococcus aureus [15],0.125 µg/mL
same,MIC,Staphylococcus aureus [16],0.031 µg/mL
same,MIC,Staphylococcus aureus [17],0.063 µg/mL
same,MIC,Staphylococcus aureus [18],0.063 µg/mL
same,MIC,Streptococcus pyogenes,2 µg/mL
same,MIC,Staphylococcus aureus [19],0.063 µg/mL
same,MIC,Staphylococcus aureus [20],0.125 µg/mL
same,MIC,Staphylococcus aureus [21],0.063 µg/mL
same,MIC,Staphylococcus aureus [22],0.063 µg/mL
same,MIC,Staphylococcus aureus [23],0.063 µg/mL
same,MIC,Staphylococcus aureus [24],0.063 µg/mL
same,MIC,Staphylococcus aureus [25],0.25 µg/mL
same,MIC,Staphylococcus aureus [26],0.063 µg/mL
same,MIC,Staphylococcus aureus [27],0.125 µg/mL
same,MIC,Staphylococcus aureus [28],≤ 0.0078 µg/mL
same,MIC,Staphylococcus aureus [29],0.125 µg/mL
same,MIC,Staphylococcus aureus [30],0.063 µg/mL
same,MIC,Staphylococcus aureus [31],0.125 µg/mL
same,MIC,Staphylococcus aureus [32],0.063 µg/mL
same,MIC,Staphylococcus aureus [33],0.063 µg/mL
same,MIC,Staphylococcus aureus [34],0.031 µg/mL
same,MIC,Staphylococcus aureus [35],0.063 µg/mL
same,MIC,Staphylococcus aureus [36],0.063 µg/mL
same,MIC,Enterococcus faecalis,0.125 µg/mL
same,MIC,Staphylococcus aureus [37],0.031 µg/mL
same,MIC,Staphylococcus aureus [38],0.063 µg/mL
same,MIC,Staphylococcus aureus [39],0.016 µg/mL
same,MIC,Staphylococcus aureus [40],16 µg/mL
same,MIC,Staphylococcus aureus [41],0.063 µg/mL
same,MIC,Staphylococcus aureus [42],0.063 µg/mL
same,MIC,Staphylococcus aureus [43],0.031 µg/mL
same,MIC,Staphylococcus aureus [44],0.031 µg/mL
O=C1c2cccnc2C(=O)c2c1c(C(=O)OCCCCCCN1CCOCC1)c1ccc(Br)cn21,MIC,Staphylococcus aureus [1],≤ 0.0078 µg/mL
same,MIC,Staphylococcus aureus [2],≤ 0.0078 µg/mL
same,MIC,Staphylococcus aureus [3],≤ 0.0078 µg/mL
same,MIC,Staphylococcus aureus [4],≤ 0.0078 µg/mL
same,MIC,Staphylococcus aureus [5],≤ 0.0078 µg/mL
same,MIC,Staphylococcus aureus [6],≤ 0.0078 µg/mL
same,MIC,Staphylococcus aureus [7],≤ 0.0078 µg/mL
same,MIC,Streptococcus pneumoniae,0.5 µg/mL
same,MIC,Staphylococcus aureus [8],≤ 0.0078 µg/mL
same,solubility,"[9]; buffer, 4 h",Insoluble
same,MIC,Staphylococcus aureus [10],≤ 0.0078 µg/mL
same,MIC50,Staphylococcus aureus [11],≤ 0.0078 µg/mL
same,MIC90,Staphylococcus aureus [11],≤ 0.0078 µg/mL
same,MIC,Staphylococcus aureus [12],≤ 0.0078 µg/mL
same,MIC,Staphylococcus aureus [13],≤ 0.0078 µg/mL
same,MIC,Staphylococcus aureus [14],≤ 0.0078 µg/mL
same,MIC,Staphylococcus aureus [15],≤ 0.0078 µg/mL
same,MIC,Staphylococcus aureus [16],≤ 0.0078 µg/mL
same,MIC,Staphylococcus aureus [17],≤ 0.0078 µg/mL
same,MIC,Staphylococcus aureus [18],≤ 0.0078 µg/mL
same,MIC,Streptococcus pyogenes,2 µg/mL
same,MIC,Staphylococcus aureus [19],≤ 0.0078 µg/mL
same,MIC,Staphylococcus aureus [20],≤ 0.0078 µg/mL
same,MIC,Staphylococcus aureus [21],≤ 0.0078 µg/mL
same,MIC,Staphylococcus aureus [22],≤ 0.0078 µg/mL
same,MIC,Staphylococcus aureus [23],≤ 0.0078 µg/mL
same,MIC,Staphylococcus aureus [24],≤ 0.0078 µg/mL
same,MIC,Staphylococcus aureus [25],≤ 0.0078 µg/mL
same,MIC,Staphylococcus aureus [26],≤ 0.0078 µg/mL
same,MIC,Staphylococcus aureus [27],≤ 0.0078 µg/mL
same,MIC,Staphylococcus aureus [28],≤ 0.0078 µg/mL
same,MIC,Staphylococcus aureus [29],≤ 0.0078 µg/mL
same,MIC,Staphylococcus aureus [30],≤ 0.0078 µg/mL
same,MIC,Staphylococcus aureus [31],≤ 0.0078 µg/mL
same,MIC,Staphylococcus aureus [32],≤ 0.0078 µg/mL
same,MIC,Staphylococcus aureus [33],≤ 0.0078 µg/mL
same,MIC,Staphylococcus aureus [34],≤ 0.0078 µg/mL
same,MIC,Staphylococcus aureus [35],≤ 0.0078 µg/mL
same,MIC,Staphylococcus aureus [36],≤ 0.0078 µg/mL
same,MIC,Enterococcus faecalis,0.063 µg/mL
same,MIC,Staphylococcus aureus [37],≤ 0.0078 µg/mL
same,MIC,Staphylococcus aureus [38],≤ 0.0078 µg/mL
same,MIC,Staphylococcus aureus [39],≤ 0.0078 µg/mL
same,MIC,Staphylococcus aureus [40],> 16 µg/mL
same,MIC,Staphylococcus aureus [41],≤ 0.0078 µg/mL
same,MIC,Staphylococcus aureus [42],≤ 0.0078 µg/mL
same,MIC,Staphylococcus aureus [43],0.0078 µg/mL
same,MIC,Staphylococcus aureus [44],≤ 0.0078 µg/mL
